Source: patent US20230071390A1, “ASSESSMENT OF PR CELLULAR SIGNALING PATHWAY ACTIVITY USING MATHEMATICAL MODELLING OF TARGET GENE EXPRESSION” (InnoSIGN B.V., priority 2019, published 2023)

Tests used:
[1] = test system: PR cellular signaling pathway; test: PR pathway activity inferred by Bayesian network models, ishikawa IKPR-AB36 endometrium cell line (GSE29435); type: cell-based; conditions: PR-A, PR-B and PR-A&B models; 1 nM, 48h; versus control treated samples
Source text: (§1) Herein, an exemplary Bayesian network model as shown in FIG. 1 was used to model the transcriptional program of the PR cellular signaling pathway in a simple manner. The model consists of three types of nodes: (a) a transcription factor (TF) element (with states “absent” and “present”) in a first layer 1; (b) target genes TG1, TG2, TGn (with states “down” and “up”) in a second layer 2, and; (c) measurement nodes linked to the expression levels of the target genes in a third layer 3. These can be microarray probesets PS1,1, PS1,2, PS1,3, PS2,1, PSn,1, PSn,m (with states “low” and “high”), as preferably used herein, but could also be other gene expression measurements such as RNAseq or RT-qPCR.
(§2) Once the exemplary Bayesian network model is built and calibrated (see below), the model can be used on microarray data of a new sample by entering the probeset measurements as observations in the third layer 3, and inferring backwards in the model what the probability must have been for the TF element to be “present”. Here, “present” is considered to be the phenomenon that the TF element is bound to the DNA and is controlling transcription of the cellular signaling pathway's target genes, and “absent” the case that the TF element is not controlling transcription.
(§3) The models are identified by their target gene list and calibration set. […]

[2] = test system: PR cellular signaling pathway; test: PR pathway activity inferred by Bayesian network models, PR-B expressing hMEC breast cell line (GSE24468); type: cell-based; conditions: PR-A, PR-B and PR-A&B models; 10 nM, 16h; versus control treated samples
Source text: as §1, §2, §3

[3] = test system: PR-B cellular signaling pathway; test: PR-B pathway activity in paired pre/post letrozole treatment breast cancer samples (GSE10281); type: in vivo, human; conditions: ER positive breast cancer patients, 3 months neoadjuvant treatment
Source text: as §1, §2, §3

[4] = test system: tumor growth in xenograft models; conditions: cited from earlier work

CC(=O)O[C@]1(C(C)=O)CC[C@H]2[C@@H]3C[C@H](C)C4=CC(=O)CC[C@]4(C)[C@H]3CC[C@@]21C [MPA, medroxyprogesterone acetate]
PR cellular signaling pathway activity levels (odds PR on:off) [1]: significantly higher

CCC(=O)[C@@]1(C)CC[C@H]2[C@@H]3CCC4=CC(=O)CCC4=C3CC[C@@]21C [R5020, promegestone]
PR cellular signaling pathway activity levels [2]: significantly higher

N#Cc1ccc(C(c2ccc(C#N)cc2)n2cncn2)cc1 [letrozole]
Normalized PR-B cellular signaling pathway activity levels, post vs. pre treatment ([3]; non-responders): remain similar to pre-treatment | Mean normalized PR-B cellular signaling pathway activity, post vs. pre treatment ([3]; responders): goes up

CC(=O)[C@H]1CC[C@H]2[C@@H]3CCC4=CC(=O)CC[C@]4(C)[C@H]3CC[C@]12C [progesterone, Progesterone]
Effect over tamoxifen regarding controlling tumor growth [4]: additive effect
